Measured values: patent publication US20250213519A1, “SYNERGY FOR INCREASING INSULIN SENSITIVITY” (Board of Supervisors of Louisiana State University and …, priority 2022, published 2025)
≈ marks a conversion by molar mass, not a printed value. Entries after “also recorded” stand apart in the source; their conditions may differ. Like-named read-outs stand apart in the source and are kept apart here.

Legend:
[1] = Myricetin toxicity in mice; type: in vivo; conditions: converted for human
[2] = Estimated human Cmax of myricetin by conversion from rats; conditions: for Cmax: human, oral
[3] = system: human adipocytes; assay: Protein levels by Western blotting in human adipocytes treated for seven days; type: cell-based; conditions: for PGC-1α protein, myricetin added to NRBC: 50 nM myricetin + NRBC, compared to NRBC
[4] = system: human adipocytes; assay: mRNA levels (qRT-PCR) in human adipocyte cultures treated for seven days; type: cell-based; conditions: for effects on gene expression of myricetin added to NRBC: added to nar ext + β-carotene, nanomolar myricetin
From the text: In adipocytes, CDK5 inhibitors reduce adipogenesis and increase genes for energy expenditure by altering PPARγ target gene selection. We measured the expression of the PPARα/γ direct target gene UCP1 after treating human adipocyte cultures with CDK5-inhibiting flavonols combined with naringenin for seven days.
Human adipose-derived stem cells from overweight and obese female donors were purchased from LaCell, LLC (New Orleans, Louisiana) or isolated from lipoaspirate waste donated post-surgery from women with obesity using methods as previously described (31). Cells were seeded, maintained until two days after becoming confluent, and differentiated into adipocytes in the presence of rosiglitazone and isobutylmethylxanthine for five days as previously described (25). […], dissolved in DMSO at 1000×, started 5 days after the differentiation period and lasted for seven days in adipocyte maintenance medium with heat inactivated serum, before RNA and protein were isolated from adipocyte cultures.
Quantitative reverse transcriptase and real-time PCR were conducted in one reaction with the gene-specific reverse PCR primer also priming the cDNA synthesis as previously described (25). Primer-probe sequences for UCP1, GLUT4, ATGL, adiponectin, PGC-1α and ribosomal RPL13A, used to adjust target gene values for total RNA in each sample, have been previously reported (25). […] Predesigned human primer and probe sets from Thermofisher Scientific are PM20D1 Hs00399438_m1; ANGPTL4 Hs00211522_m1; GDF11 Hs00195156_m1; S100B Hs00902901_m1.

[5] = system: cytochrome P450 and drug efflux pumps like P-glycoprotein; conditions: enhances availability of co-administered tamoxifen and losartan in rats; cited from earlier work
[6] = oral administration, high fat diet; cited from earlier work
[7] = 0.12% myricetin in high fat and sucrose diet; cited from earlier work
[8] = system: human adipocytes; assay: mRNA levels (qRT-PCR) in human adipocyte cultures treated for seven days; type: cell-based; conditions: 50 nM myricetin alone, 7 days
[9] = system: human adipocytes; assay: Protein levels by Western blotting in human adipocytes treated for seven days; type: cell-based; conditions: for SIRT3 protein levels, NR combined with myricetin: 8 μM NR + 50 nM myricetin vs NR or myr alone
From the text: Since we saw an increase in SIRT3 mRNA and myricetin upregulates SIRT3 protein in adipocytes from mice, we analyzed levels of SIRT3 protein in human adipocytes treated for seven days with the same concentrations of compounds. Protein was isolated from adipocytes and analyzed on immunoblots probed with antibodies that specifically bind human SIRT3 or human β-actin. […] However, adding myr to NR+BC boosted SIRT3 protein by 37%.
Human adipose-derived stem cells from overweight and obese female donors were purchased from LaCell, LLC (New Orleans, Louisiana) or isolated from lipoaspirate waste donated post-surgery from women with obesity using methods as previously described (31). Cells were seeded, maintained until two days after becoming confluent, and differentiated into adipocytes in the presence of rosiglitazone and isobutylmethylxanthine for five days as previously described (25). Treatments of adipocytes with 8 μM NR and 2 μM carotenoid, dissolved in DMSO at 1000×, started 5 days after the differentiation period and lasted for seven days in adipocyte maintenance medium with heat inactivated serum, before RNA and protein were isolated from adipocyte cultures.
Whole cell protein was isolated from differentiated cell cultures after treatment for seven days, lysed with RIPA buffer containing protease and phosphatase inhibitors, and pushed through a 20-gauge needle four times to disrupt organelles. Fifty micrograms of total cell protein were loaded per lane and resolved in 7.5% SDS-PAGE gels, transferred to nitrocellulose membranes, and probed overnight at 4° C. with specific primary antibodies. Anti-rabbit or -mouse secondary antibodies conjugated to horseradish peroxidase were used for detection of target proteins. Image J was used to quantify protein bands on Western blots. To adjust for variations in total protein loaded in each lane, β-actin was used.

[10] = Pharmacokinetics of myricetin in rats; type: in vivo; conditions: plasma, po, from Table 1 (rat), converted
[11] = cited from earlier work; for solubility in an acidic solution: acetic acid buffered
[12] = single dose injection; cited from earlier work
[13] = system: PPARg P-serine 273; assay: Immunoblot of PPARg phosphorylation at serine 273; type: cell-based, human; conditions: 50 nM myricetin + 8 μM NR + 2 μM BC, 7 days
Method: Phosphorylation of PPARg by CDK5 at serine-273 is an important mechanism for inhibition of target genes for insulin sensitivity^7. Inhibitors of CDK5 have potential as diabetes drugs^8. Several studies have provided that myricetin is a CDK5 inhibitor and has insulin sensitizing characteristics that make it a potential therapeutic for diabetes^9,10. We previously analyzed NRBC for effects on PPARg phosphorylation at serine 273. Human adipocytes were treated with 8 μM NR and 2 μM BC for three, five and seven days, and protein was isolated and analyzed on immunoblots probed with an antibody specific for human P-serine 273 PPARg. The same blot was stripped and re-probed with an antibody for total human PPARg. Values in the histogram represent (P-ser 273 PPARg)/(total PPARg). […] The effect increases over time.
The experiment for analysis of phosphorylation of PPARg at P-273 was repeated to determine whether adding myricetin to NRBC can further inhibit PPARg P-273 phosphorylation. Cells were treated for seven days with 8 μM NR, 2 μM BC and 50 nM myricetin. Protein was analyzed on immunoblots probed with the same antibodies.

[14] = mice; cited from earlier work

Structure (SMILES): O=c1c(O)c(-c2cc(O)c(O)c(O)c2)oc2cc(O)cc(O)c12 [myricetin]
- Tox, human equivalent [1]: 11 g
- Human Cmax ([2]; 564 mg dose, conversion from 50 mg/kg in rats): 39.4 µM
- Cmax ([2]; 10 mg): ~0.4 µM
- Cmax ([2]; 564 mg): ~2.5 µM
- PGC-1α protein, myricetin added to NR ([3]; 50 nM myricetin + 8 μM NR): small increase
- PGC-1α protein, myricetin added to NRBC [3]: two-fold higher
- PGC-1α protein, myricetin added to NRBC ([3]; listed as Myricetin): over two-fold
- PGC-1α protein levels ([3]; 50 nM myricetin, 7 days): robustly upregulated
- UCP1 and GLUT4 mRNA, flavonol combined with naringenin ([4]; 2.5 μM flavonol + 8 μM naringenin extract, 7 days, vs naringenin alone (FIG. 1)): synergistically increased expression of UCP1 and GLUT4
- most active myricetin concentration with naringenin extract and β-carotene ([4]; 25, 50 and 100 nM tested with NRBC): 50 nM
- myricetin concentration with most potent upregulation of gene expression ([4]; added to 8 μM naringenin, 0.1 μM to 6 μM tested): 0.1 µM
- effects on gene expression of myricetin added to NRBC [4]: further upregulates gene expression; also recorded: almost doubles; also recorded: approximately doubles
- effects on gene expression of myricetin added to NRBC ([4]; listed as Myricetin): enhances the effects on gene expression
- increase in UCP-1 and GLUT-4 with naringenin ([4]; human fat cells, myricetin with naringenin): many fold greater increase in UCP-1 and GLUT-4
- gene expression, myricetin alone ([4]; low nanomolar concentrations, 7 days): no effect at any concentration
- effects on gene expression combined with naringenin ([4]; myricetin 5 nM + 8 μM naringenin ext): slightly reduced
- effects on gene expression combined with naringenin ([4]; myricetin 50 nM and 25 nM + 8 μM naringenin ext): remained strong
- upregulation of thermogenic gene expression and adiponectin ([4]; myricetin added to naringenin alone or to naringenin and beta carotene): approximately doubles
- inhibition of cytochrome P450 and efflux pumps [5]: inhibits cytochrome P450 and drug efflux pumps like P-glycoprotein
- fatty liver disease and circulating triglycerides [6]: improved fatty liver disease and lowered circulating triglycerides
- adiposity, circulating glucose and insulin [7]: reductions in adiposity, and circulating glucose and insulin
- SIRT1 or SIRT3 mRNA levels [8]: no effect
- SIRT3 protein levels, NR combined with myricetin [9]: does not increase SIRT3 protein levels
- SIRT3 protein levels, NR combined with myricetin ([9]; listed as Myricetin): did not increase SIRT3 protein levels
- SIRT3 protein levels, single agent ([9]; 8 μM NR or 50 nM myricetin, 7 days): upregulate SIRT3 protein levels
- increase in SIRT3 protein ([9]; myr added to NR+BC): 37%
- increase in SIRT3 mRNA and protein ([9]; myr added to NRBC (summary)): two-fold
- Cmax ([10]; first value (50 mg/kg p.o.)): 5 µM
- Cmax ([10]; second value (100 mg/kg p.o.)): 8.7 µM
- solubility in an acidic solution ([11]; pH 1): 777 µg/mL (≈ 2440 µM)
- solubility in an acidic solution ([11]; pH 2): 576 µg/mL (≈ 1810 µM)
- solubility in an acidic solution ([11]; pH 3): 150 µg/mL (≈ 471 µM)
- aqueous solubility ([11]; aqueous): 17 µg/mL (≈ 53.4 µM)
- blood glucose levels [12]: maintained reduced blood glucose levels for eight hours
- PPARg P-273 phosphorylation, myricetin added to NRBC [13]: did not further decrease PPARg P-273 relative to NRBC
- PPARg P-273 phosphorylation, myricetin added to NRBC ([13]; listed as Myricetin): did not alter phosphorylation of PPARg at serine-273
- Tox [14]: 1000 mg/kg/day
